Reference: patent publication EP2177218A1, “Regenerative therapy” (Medizinische Universität Wien, priority 2008, dated 2010)
“Also recorded” adds a separate entry of the source.

Tests used:
OPCs [1] = assay: OPC differentiation on myelin protein extract (MPE) or myelin substrate, O4 immunocytochemistry, pharmacological agents; assay type: cell-based, Sprague-Dawley rat; conditions: for max. mean increase of OPC differentiation: 48 hours incubation in differentiation medium, Fig. 4; for mean increase of OPC differentiation: OPCs on myelin (MPE); for OPC differentiation / O4 expression in the presence of myelin inhibitors (result in words): differentiation medium
Description: Primary cultures of oligodendrocyte precursor cells were isolated from PO-P2 neonatal Sprague-Dawley rat forebrains following a Standard protocol (McCarthy et al., J Cell Biol 85 (1980): 890-902) that were adapted for the present purpose (Syed et al. 2008, supra). In brief, hemispheres were stripped free of meninges, after a digestion step the cells were plated into cell culture flasks and mixed glia cultures were grown for approx. 10 days in DMEM medium supplemented with 10% PCS at 37°C and 7,5% CO2. To remove the loosely attached microglia the flasks were shaken for 1 hour at 260rpm on an orbital shaker before being shaken at 260rpm overnight to dislodge the loosely attached oligodendrocyte precursors. OPCs were further purified from contaminating microglia by a differential adhesion step. Subsequently OPCs were plated onto polylysine (PLL)-coated or Substrate coated dishes. To maintain cells at an early precursor stage PDGF-AA (Pepro Tech) and FGF (Pepro Tech) were added (10ng/ml) to SATOs medium. To induce differentiation cells were incubated in SATOs medium supplemented with 0.5% FCS. The purity of each culture was monitored following OPC purification by immunocytochemistry and only cultures with >94% purity were used. In the cultures minor contaminations of microglia that can be detected by isolectin staining and which amount to 4-5% of the cells, as well as by astrocytes (detectable by GFAP) and fibroblasts with distinct morphology, which account for about 1-2% of the cells are present.
To prepare myelin protein extract (MPE) the pellets were re-suspended in 1% N-octyl β-D-glucopyranoside, 0.2M Sodiumphosphate pH 6.8, 0.1 M Na2SO4 and 1mM EDTA and incubated at 23°C for 2 hours. Following an ultracentrifugation step (100,000 x g, 18°C, 30 min) the supernatants were collected and stored at -20°C until further usage.
The pooled OPCs harvested as outlined above were seeded at the same density of 20000 cells per well into polylysine (PLL)-coated 8-well chamber slides. Cells were differentiated for 48 hours and subsequently fixed with 4% paraformaldehyde in PBS, permeabilised and blocked with 0.3% Triton X-100 and 10% NGS. To assess the differentiation state of OPCs the cells were incubated with 04 antibody (1:100; Chemicon) for 1 hour in the presence of 0.1% Triton X-100 and 2% NGS, washed, and incubated for another 1 hour with the appropriate fluorescent secondary antibody (Cy3-conjugated antibody 1:100; Jackson Immuno Research) and the nuclei were stained using DAPI (Robinson et al., Dev Biol 216 (1999): 359-368; Syed et al. 2008, supra). It is important to note that permeabilisation of cells results in a punctate representation of the extracellular antigen 04 (Reynolds et al., Curr Opin Biotechnol 4 (1993): 734-738; Weiss et al., J Neurosci 16 (1996): 7599-7609; Syed et al. 2008, supra). Under an Olympus X51 fluorescent microscope using a triple-filter the percentage of O4-positive cells in relation to >100 DAPI-stained nuclei in randomly selected eye fields for each experimental condition were determined. To establish the purity of the OPC cultures immunocytochemistry for A2B5 (1:100; Chemicon) was performed according to the same principles and the percentage of A2B5+ cells to >100 DAPI-stained nuclei in randomly selected eye fields was determined. Only cell cultures with >94% A2B5-pos. cells were used for the present study. To assess the morphological phenotype of OPCs, A2B5+-cells were categorised according to the following criteria: stage 1: mono/bipolar; stage II: multipolar, primary branched; stage III: multipolar, secondary branched; stage IV: secondary branched cells with membranous processes.
To examine whether ROCK-II and PKC Signal transduction is implicated in the myelin mediated differentiation block, pharmacological inhibitors were added to the culture medium immediately after cell seeding. […]

OPCs [2] = assay: TUNEL assay (apoptosis); assay type: cell-based, Sprague-Dawley rat; conditions: treated OPCs on MPE vs OPCs on PLL control, Fig. 7
Description: Fragmented DNA was detected by incorporation of biotinylated nucleotides at the 3'-OH DNA ends using Terminal Deoxynucleotidyl Transferase recombinant (rTdT) enzyme according to the manufacturer's instruction (Promega). Stained cells were visualized by light microscopy and the percentage of apoptotic nuclei was determined.

CREB = CREB phosphorylation in OPCs (immunoprecipitation, Western blot for phospho-CREB); assay type: cell-based, Sprague-Dawley rat; conditions: in the presence of MAI, Fig. 14
EB lesions = assay: In situ hybridisation for cell markers in EB lesions; assay type: in vivo, Sprague-Dawley rats; conditions: 0,5mg/KG/d s.c.; for number of active OPCs (Nkx2.2): day 7, vs PBS vehicle; for macrophage marker MRSB (immune response): day 7 and day 14, vs PBS vehicle; for number of PDGFR-α positive OPCs in lesions / number of PLP positive cells (mature oligodendrocytes): day 14, vs PBS vehicle
Description: To validate the finding that administration of rolipram promotes CNS remyelination, the experiments were repeated as follows. EB lesions were induced in Sprague-Dawley rats, and rats were treated either with rolipram (0,5mg/KG/d) or PBS vehicle administered via s.c. osmotic pumps implanted 3 days post lesion induction. Animals were sacrificed at day 7 and day 14 post lesion induction and the tissue processed for in situ hybridization. The lesion area was visualized and measured on digitized solochrome cyanine stained sections and the number of cells within the lesion area as detected by ISH was determined.
PDGFR-α, a general marker for OPCs, was used to determine the presence of OPCs in the lesions.
Nkx2.2 can be used to detect activated OPCs within remyelinating lesions.
To detect mature oligodendrocytes, in situ hybridization for PLP was conducted. The extent of remyelination in control animals at 14 days is minimal. As to be expected in control animals the number of PLP positive cells remained unchanged at day 7 and day 14.
Finally, ISH for MRSB, a marker for macrophages, was used to determine whether rolipram treatment affects the immune response.

demyelinating lesions = assay: Remyelination in vivo after ethidium bromide lesions, blind ranking of semithin resin sections; parameters: species or system Sprague Dawley rats; conditions: 0.5 mg/kg/d s.c. osmotic pumps, 14 days post lesion induction, preliminary
Description: The in vitro finding that rolipram is able to promote OPC differentiation in the presence of MAI was further developed to confirm remyelination in vivo. For this purpose demyelinating lesions were induced by topic injection of ethidium bromide into white matter tracts of young adult Sprague Dawley rats, and rolipram was applied subcutaneously by continuous osmotic pumps. 0,5mg/KG/d of rolipram was used in the first set of experiments that assessed the rate of remyelination. […] This is the first experiment that succeeded in enhancing the efficiency of remyelination in this model (Fig. 16).

12-(2-cyanoethyl)-6,7,12,13-tetrahydro-13-methyl-5-oxo-5H-indolo[2,3-a]pyrrollo[3,4-c]carbazole [Gö6976]
max. mean increase of OPC differentiation (OPCs [1]; OPCs on MPE): 269%
mean increase of OPC differentiation (OPCs [1]; 50nM, n=3): 267%
apoptosis, TUNEL positive cells (OPCs [2]): no differences

[H]/N=C(/N)SCCCn1cc(C2=C(c3cn(C)c4ccccc34)C(=O)NC2=O)c2ccccc21 [BIM, Bisindolylmaleimide IX]
max. mean increase of OPC differentiation (OPCs [1]; OPCs on MPE): 169%
mean increase of OPC differentiation (OPCs [1]; 6.25nM, n=4): 169%

O=S(=O)(c1cccc2cnccc12)N1CCCNCC1 [HA-1077, 1-(5-lsoquinolinesulfonyl)-1H-hexahydro-1,4-diazepine 2 HCI]
mean increase in the number of differentiating OPCs (OPCs [1]; OPCs on MPE, 5µM, 48 hours in differentiation medium, n=4): 174%
increase of differentiating cells (OPCs [1]; OPCs on MPE, 48h culture in differentiation medium, Fig. 3b): more than 160%
OPC differentiation / O4 expression in the presence of myelin inhibitors (result in words) (OPCs [1]; OPCs on MPE): largely restored
apoptosis, TUNEL positive cells (OPCs [2]): no significant differences

CCCC(=O)Nc1ncnc2c1ncn2[C@@H]1O[C@@H]2COP(=O)([O-])O[C@H]2[C@H]1OC(=O)CCC.[Na+] [db-cAMP]
OPC differentiation / O4 expression in the presence of myelin inhibitors (result in words) (OPCs [1]; OPCs on MPE): partially overcome

NCCCCN [putrescine]
OPC differentiation / O4 expression in the presence of myelin inhibitors (result in words) (OPCs [1]; OPCs on MPE): not the case
OPC differentiation / O4 expression in the presence of myelin inhibitors (result in words) (OPCs [1]; OPCs on MPE, listed as Putrescine): does not stimulate OPC differentiation

COc1ccc(C2CNC(=O)C2)cc1OC1CCCC1 (centres unmarked) [rolipram]
differentiation capability of OPCs plated on MPE (OPCs [1]; 0.5µM in the medium): completely restore
OPC differentiation / O4 expression in the presence of myelin inhibitors (result in words) (OPCs [1]; OPCs on MPE): able to induce OPC differentiation; also recorded: able to restore OPC differentiation
CREB phosphorylation / activation in OPCs (CREB): restores CREB activation
CREB phosphorylation / activation in OPCs (CREB; listed as Rolipram): inducing CREB phosphorylation
number of active OPCs (Nkx2.2) (EB lesions): effectively increased
number of active OPCs (Nkx2.2) (EB lesions; listed as Rolipram): increase
macrophage marker MRSB (immune response) (EB lesions): no differences detected
macrophage marker MRSB (immune response) (EB lesions; listed as Rolipram): did not affect the immune response
number of PDGFR-α positive OPCs in lesions (EB lesions): remained elevated
number of PLP positive cells (mature oligodendrocytes) (EB lesions): significant increase
number of PDGFR-α positive OPCs in lesions (EB lesions; listed as Rolipram): maintained levels
number of PLP positive cells (mature oligodendrocytes) (EB lesions; listed as Rolipram): strong increase
number of Nkx2.2 positive cells (EB lesions; later stages (day 14), vs PBS vehicle): reached levels of control animals
extent of remyelination, rank assessment (demyelinating lesions): able to promote remyelination in-vivo; also recorded: potently enhanced
